Laboratory results taken from patent publication US20260285834A1, “SUBSTITUTED PYRIDINE DERIVATIVES AS SARM1 INHIBITORS” (Nura Bio, Inc., priority 2022, published 2026).
Counter-ions that a name gives are not always drawn.

Each compound was assayed against T1, human SARM1(50-724) (Homo sapiens, UniProt Q6SZW1) (assay: SARM1 biological assay: HPLC measurement of NAD and NAM peak areas). Conditions: not given.
T1 construct: 40 nM human SARM1(50-724)
T1 sequence (Q6SZW1 50-724): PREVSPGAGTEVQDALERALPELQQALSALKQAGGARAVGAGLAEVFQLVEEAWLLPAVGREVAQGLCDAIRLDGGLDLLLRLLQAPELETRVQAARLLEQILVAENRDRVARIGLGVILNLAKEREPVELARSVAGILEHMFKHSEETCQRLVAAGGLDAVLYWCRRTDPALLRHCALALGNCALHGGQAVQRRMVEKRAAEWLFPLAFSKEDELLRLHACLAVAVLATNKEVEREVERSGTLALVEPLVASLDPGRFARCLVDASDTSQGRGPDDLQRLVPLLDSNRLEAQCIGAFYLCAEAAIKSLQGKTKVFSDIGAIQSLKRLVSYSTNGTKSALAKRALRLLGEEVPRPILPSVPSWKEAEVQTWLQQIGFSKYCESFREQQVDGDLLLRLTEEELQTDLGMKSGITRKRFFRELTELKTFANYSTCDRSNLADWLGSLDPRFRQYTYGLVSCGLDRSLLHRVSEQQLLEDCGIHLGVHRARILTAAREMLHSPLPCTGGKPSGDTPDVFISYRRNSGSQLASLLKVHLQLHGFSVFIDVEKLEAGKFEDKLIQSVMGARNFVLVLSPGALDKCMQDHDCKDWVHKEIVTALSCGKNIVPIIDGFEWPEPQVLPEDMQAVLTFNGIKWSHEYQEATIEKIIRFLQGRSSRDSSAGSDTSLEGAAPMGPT
Format: biochemical
Protocol: Each reaction was run at a volume of 20 μL containing 50 μM compound (dissolved in DMSO; final concentration of DMSO is 1% v/v), 40 nM human SARM1(50-724), 0.3 mM NMN, 20 μM NAD, 1 mM TCEP, 25 mM HEPES pH 7.4, 10 mM KCl and 10 mM MgCl2. The reaction was incubated at room temperature for 60 minutes and quenched with 20 μL of 0.4% formic acid. The samples were run on Agilent HPLC 1260 Infinity II with Synergi 2.5 μM Fusion-RP 100 Å (100×3.0 mm) LC column from Phenomenex. Total run time for each sample was 4 minutes. The run was isocratic with 1.5% methanol in 40 mM ammonium acetate pH 6.0. Samples were run at a flow rate of 0.8 mL/min at 55° C. Peak areas of NAD and NAM were determined using OpenLAB CDS (Chem Station edition) software. For dose-response, the compound was diluted serially 1:3 in DMSO and added to the reaction starting at a final compound concentration of 100 μM in 1% DMSO.

Row | SMILES | IC50 [µM]
1 | CC(c1ccncc1)c1c[nH]c(C(=O)C(F)(F)F)n1 (racemic) [Example 22, 2,2,2-Trifluoro-1-(4-(pyridine-4-yl)ethyl)-1H-imidazol-2-yl)ethan-1-one hydrochloride] | < 1
2 | FC(F)(F)[C@H]1CCO[C@H]1c1nc(Cc2ccncc2)c[nH]1 (relative stereo) [Example 27, (cis)-4-((2-(3-(trifluoromethyl)tetrahydrofuran-2-yl)-1H-imidazol-4-yl)methyl)pyridine] | 10 to 100
3 | FC1(F)CC1c1nc(Cc2ccncc2)c[nH]1 (single isomer, unassigned) [Example 5A] | < 1
4 | C[C@]1(c2nc(Cc3ccncc3)c[nH]2)CC1(F)F (single isomer, unassigned) [Example 10A] | < 1
5 | C[C@@]1(c2nc(Cc3ccncc3)c[nH]2)CC1(F)F (single isomer, unassigned) [Example 10B] | < 1
6 | FC1(F)CC[C@H](c2nc(Cc3ccncc3)c[nH]2)C1 (single isomer, unassigned) [Example 11A] | < 1
7 | FC1(F)CC[C@@H](c2nc(Cc3ccncc3)c[nH]2)C1 (single isomer, unassigned) [Example 11B] | 1 to 10
8 | FC1(F)C[C@@H]1Cc1nc(Cc2ccncc2)c[nH]1 (single isomer, unassigned) [Example 21A] | < 1
9 | FC1(F)C[C@H]1Cc1nc(Cc2ccncc2)c[nH]1 (single isomer, unassigned) [Example 21B] | < 1
10 | C[C@H](c1ccncc1)c1c[nH]c(C(=O)C(F)(F)F)n1 (single isomer, unassigned) [Example 23A, hydrochloride] | < 1
11 | C[C@@H](c1ccncc1)c1c[nH]c(C(=O)C(F)(F)F)n1 (single isomer, unassigned) [Example 23B, hydrochloride] | 1 to 10
12 | FC(F)(F)[C@H]1C[C@@H](c2nc(Cc3ccncc3)c[nH]2)C1 (single isomer, unassigned) [Example 31A, (cis)-4-((2-(3-(Trifluoromethyl)cyclobutyl)-1H-imidazol-4-yl)methyl)pyridine] | 1 to 10
13 | FC(F)(F)[C@H]1C[C@H](c2nc(Cc3ccncc3)c[nH]2)C1 (single isomer, unassigned) [Example 31B, (trans)-4-((2-(3-(Trifluoromethyl)cyclobutyl)-1H-imidazol-4-yl)methyl)pyridine] | 1 to 10
14 | ClC1(Cl)C[C@@H]1c1nc(Cc2ccncc2)c[nH]1 (single isomer, unassigned) [Example 33A] | < 1
15 | ClC1(Cl)C[C@H]1c1nc(Cc2ccncc2)c[nH]1 (single isomer, unassigned) [Example 33B] | < 1
16 | F[C@@]1(Cl)C[C@@H]1c1nc(Cc2ccncc2)c[nH]1 (single isomer, unassigned) [Example 39A] | < 1
17 | F[C@]1(Cl)C[C@@H]1c1nc(Cc2ccncc2)c[nH]1 (single isomer, unassigned) [Example 39B] | < 1
18 | F[C@@]1(Cl)C[C@H]1c1nc(Cc2ccncc2)c[nH]1 (single isomer, unassigned) [Example 39C] | < 1
19 | F[C@]1(Cl)C[C@H]1c1nc(Cc2ccncc2)c[nH]1 (single isomer, unassigned) [Example 39D] | < 1
20 | FC1(F)CCN(c2nc(Cc3ccncc3)c[nH]2)CC1 [Example 1] | 1 to 10
21 | FC1(F)CN(c2nc(Cc3ccncc3)c[nH]2)C1 [Example 2, 4-((2-(3,3-Difluoroazetidin-1-yl)-1H-imidazol-4-yl)methyl)pyridine] | 1 to 10
22 | FC1(F)CCN(c2nc(Cc3ccncc3)c[nH]2)C1 [Example 3] | 1 to 10
23 | Fc1cnccc1Cc1c[nH]c(C2CC(F)(F)C2)n1 [Example 4, 4-((2-(3,3-Difluorocyclobutyl)-1H-imidazol-4-yl)methyl)-3-fluoropyridine] | < 1
24 | Fc1cnccc1Cc1coc(C2CC(F)(F)C2)n1 [Example 4A, 2-(3,3-Difluorocyclobutyl)-4-((3-fluoropyridin-4-yl)methyl)oxazole] | 10 to 100

Row | SMILES | IC50 [µM]
25 | ClC1(Cl)CC1c1nc(Cc2ccncc2)c[nH]1 (stereo not drawn) [Example 6, 4-((2-(2,2-Dichlorocyclopropyl)-1H-imidazol-4-yl)methyl)pyridine] | < 1
26 | FC1(F)CN(Cc2nc(Cc3ccncc3)c[nH]2)C1 [Example 7] | 1 to 10
27 | OC1(C(F)(F)F)CC(c2nc(Cc3ccncc3)c[nH]2)C1 (stereo not drawn) [Example 8, 3-(4-(Pyridin-4-ylmethyl)-1H-imidazol-2-yl)-1-(trifluoromethyl)cyclobutan-1-ol] | 1 to 10
28 | CC1(F)CC(c2nc(Cc3ccncc3)c[nH]2)C1 (stereo not drawn) [Example 9, 4-((2-(3-Fluoro-3-methylcyclobutyl)-1H-imidazol-4-yl)methyl)pyridine] | < 1
29 | OC1(c2nc(Cc3ccncc3)c[nH]2)CCC(F)(F)CC1 [Example 12] | 1 to 10
30 | FC1(F)CCC(c2nc(Cc3ccncc3)c[nH]2)CC1 [Example 13, 4-((2-(4,4-Difluorocyclohexyl)-1H-imidazol-4-yl)methyl)pyridine] | 1 to 10
31 | Fc1cnccc1Cc1c[nH]c(C2CC2(F)F)n1 (stereo not drawn) [Example 14, 4-((2-(2,2-Difluorocyclopropyl)-1H-imidazol-4-yl)methyl)-3-fluoropyridine] | < 1
32 | FC1(F)CC(c2nc(Cc3ccncc3)c[nH]2)C1 [Example 15A, 4-((2-(3,3-Difluorocyclobutyl)-1H-imidazol-4-yl)methyl)pyridine] | < 1
33 | FC1(F)CC(c2nc(Cc3ccncc3)co2)C1 [Example 15B, 2-(3,3-Difluorocyclobutyl)-4-(pyridin-4-ylmethyl)oxazole] | 10 to 100
34 | FC(F)(F)C1(c2nc(Cc3ccncc3)c[nH]2)CC1 [Example 16] | 1 to 10
35 | Fc1cnccc1Cc1c[nH]c(C2CCC(F)(F)CC2)n1 [Example 17A, 4-((2-(4,4-Difluorocyclohexyl)-1H-imidazol-4-yl)methyl)-3-fluoropyridine] | 1 to 10
36 | Fc1cnccc1Cc1coc(C2CCC(F)(F)CC2)n1 [Example 17B, 2-(4,4-Difluorocyclohexyl)-4-((3-fluoropyridin-4-yl)methyl)oxazole] | 10 to 100
37 | Fc1cnccc1Cc1c[nH]c(C2CCC(F)(F)C2)n1 (stereo not drawn) [Example 18A, 4-((2-(3,3-Difluorocyclopentyl)-1H-imidazol-4-yl)methyl)-3-fluoropyridine] | 1 to 10
38 | Fc1cnccc1Cc1coc(C2CCC(F)(F)C2)n1 (stereo not drawn) [Example 18B, 2-(3,3-Difluorocyclopentyl)-4-((3-fluoropyridin-4-yl)methyl)oxazole] | 10 to 100
39 | ClC1(Cl)CC(c2nc(Cc3ccncc3)c[nH]2)C1 [Example 19A, 4-((2-(3,3-Dichlorocyclobutyl)-1H-imidazol-4-yl)methyl)pyridine] | < 1
40 | ClC1(Cl)CC(c2nc(Cc3ccncc3)co2)C1 [Example 19B, 2-(3,3-Dichlorocyclobutyl)-4-(pyridine-4-ylmethyl)oxazole] | 1 to 10
41 | FC1(F)CC1Cc1nc(Cc2ccncc2)co1 (stereo not drawn) [Example 20B, 2-((2,2-Difluorocyclopropyl)methyl)-4-(pyridine-4ylmethyl)oxazole] | 10 to 100
42 | FC1(F)CC(Cc2nc(Cc3ccncc3)c[nH]2)C1 [Example 24, 4-((2-((3,3-Difluorocyclobutyl)methyl)-1H-imidazol-4-yl)methyl)pyridine] | 1 to 10
43 | FC(F)(F)C1(Cc2nc(Cc3ccncc3)c[nH]2)CC1 [Example 25] | < 1
44 | FC(F)(F)C1CC1c1nc(Cc2ccncc2)c[nH]1 (stereo not drawn) [Example 26, 4-((2-(2-(Trifluoromethyl)cyclopropyl)-1H-imidazol-4-yl)methyl)pyridine] | 1 to 10
45 | FC(F)(F)Sc1ncc(Cc2ccncc2)[nH]1 [Example 28, 4-((2-((Trifluoromethyl)thio)-1H-imidazol-5-yl)methyl)pyridine] | < 1
46 | F[C@H]1C[C@@H](c2nc(Cc3ccncc3)c[nH]2)C1 [Example 29, (cis)-4-((2-(3-Fluorocyclobutyl)-1H-imidazol-4-yl)methyl)pyridine] | < 1
47 | F[C@H]1C[C@H](c2nc(Cc3ccncc3)c[nH]2)C1 [Example 30, (trans)-4-((2-(3-Fluorocyclobutyl)-1H-imidazol-4-yl)methyl)pyridine] | 1 to 10

Same assay, conditions: read-out: Average IC50; 40 nM human SARM1(50-724), 0.3 mM NMN, 20 μM NAD, 60 min at room temperature; dose-response 1:3 serial dilution from 100 μM

Row | SMILES | IC50 [µM]
48 | FC1(F)CC1c1nc(Cc2ccncc2)c[nH]1 (single isomer, unassigned) [Example 5B] | < 1
